How the values were obtained:
Format in all cases: functional
Macrophomina phaseolina [1] = assay: Fungicidal activity against Macrophomina phaseolina assessed as mycelial growth inhibition incubated at 27 degC for 5 days; settings: 120 h
Macrophomina phaseolina [2] = assay: (§1) Fungicidal activity against Macrophomina phaseolina in non-grafted Melon plants cv. 6405 plots infested with Macrophomina phaseolina assessed as disease incidence exposed to compound at 250 ml/1000 m2 of commercial product applied as soil drench to crown zone 2 times during growing season 44 to 56 days after seeding (reference value: 45%)
Macrophomina phaseolina [3] = assay: Fungicidal activity against Macrophomina phaseolina in non-grafted Melon plants cv. 6405 plots assessed as disease incidence exposed to compound at 200 ml/1000 m2 of commercial product applied as soil drench three times during growing season (reference value: 65%)
Macrophomina phaseolina [4] = assay: as §1, with “1 time” for “2 times”
Macrophomina phaseolina [5] = assay: as §1, with “zone three” for “zone 2”, “season 21” for “season 44”, “to 49” for “to 56”, “after transplanting” for “after seeding”, “value: 23%)” for “value: 45%)”
Macrophomina phaseolina [6] = assay: Fungicidal activity against Macrophomina phaseolina in non-grafted Melon plants cv. 6405 plots assessed as disease incidence exposed to compound at 100 ml/1000 m2 of commercial product applied as soil drench three times during growing season (reference value: 65%)
Macrophomina phaseolina [7] = assay: Fungicidal activity against Macrophomina phaseolina in non-grafted Melon plants cv. 6405 plots assessed as disease incidence exposed to compound at 250 ml/1000 m2 of commercial product applied as soil drench three times during growing season (reference value: 65%)
Macrophomina phaseolina [8] = assay: Fungicidal activity against Macrophomina phaseolina in non-grafted Melon plants cv. 6405 plots assessed as disease incidence exposed to compound at 300 ml/1000 m2 of commercial product applied as soil drench three times during growing season (reference value: 65%)
Macrophomina phaseolina [9] = assay: as §1, with “at 40” for “at 250”, “zone three” for “zone 2”, “season 21” for “season 44”, “to 49” for “to 56”, “after transplanting” for “after seeding”, “value: 23%)” for “value: 45%)”
Macrophomina phaseolina [10] = assay: as §1, with “40” for “250”
Macrophomina phaseolina [11] = assay: Fungicidal activity against Macrophomina phaseolina in non-grafted Melon plants cv. 6405 plots assessed as disease incidence exposed to compound at 350 ml/1000 m2 of commercial product applied as soil drench three times during growing season (reference value: 65%)

In the case of `CO/C=C(/C(=O)OC)c1ccccc1Oc1cc(Oc2ccccc2C#N)ncn1` [AZOXYSTROBIN], the ED50 (Macrophomina phaseolina [1]) is reported as 0.38 mg/kg, the Activity (Macrophomina phaseolina [2]) is reported as 5% and the Activity (Macrophomina phaseolina [3]) is reported as 5%. The Activity (Macrophomina phaseolina [4]) was 15% and the Activity (Macrophomina phaseolina [5]) was 3%.

In the case of `N#Cc1c(Cl)c(Cl)c(Cl)c(C#N)c1Cl` [CHLOROTHALONIL], the ED50 (Macrophomina phaseolina [1]) is reported as 0.61 mg/kg.

In the case of `O=C(Cc1ccccc1)N/C(=N\OCC1CC1)c1c(C(F)(F)F)ccc(F)c1F` [CYFLUFENAMID], the ED50 (Macrophomina phaseolina [1]) is reported as less than 0.01 mg/kg and the Activity (Macrophomina phaseolina [6]) is reported as 60%.

Compound `O=[N+]([O-])c1cc(C(F)(F)F)c(Cl)c([N+](=O)[O-])c1Nc1ncc(C(F)(F)F)cc1Cl` [FLUAZINAM] has an ED50 (Macrophomina phaseolina [1]) of less than 0.01 mg/kg.

In the case of `OC(Cn1cncn1)(c1ccc(F)cc1)c1ccccc1F` (configuration not stated) [FLUTRIAFOL], the ED50 (Macrophomina phaseolina [1]) is reported as 13.1 mg/kg and the Activity (Macrophomina phaseolina [7]) is reported as 50%.

Compound `CC(C)NC(=O)N1CC(=O)N(c2cc(Cl)cc(Cl)c2)C1=O` [IPRODIONE] has an ED50 (Macrophomina phaseolina [1]) of 0.03 mg/kg and an Activity (Macrophomina phaseolina [3]) of 35%.

For `COCC(=O)N(c1c(C)cccc1C)[C@H](C)C(=O)OC` [MEFENOXAM], the ED50 (Macrophomina phaseolina [1]) was greater than 10 mg/kg, the Activity (Macrophomina phaseolina [8]) was 10% and the Activity (Macrophomina phaseolina [9]) was 10%. It also gave an Activity (Macrophomina phaseolina [10]) of 50%.

For `CCCCC(C#N)(Cn1cncn1)c1ccc(Cl)cc1` (configuration not stated) [MYCLOBUTANIL], the ED50 (Macrophomina phaseolina [1]) was 0.26 mg/kg and the Activity (Macrophomina phaseolina [3]) was 45%.

`CCCN(CCOc1c(Cl)cc(Cl)cc1Cl)C(=O)n1ccnc1` [PROCHLORAZ] showed an ED50 (Macrophomina phaseolina [1]) of 0.04 mg/kg and an Activity (Macrophomina phaseolina [7]) of 35%.

Work on `CCCOC(=O)NCCCN(C)C.Cl` [PROPAMOCARB HYDROCHLORIDE] yielded an ED50 (Macrophomina phaseolina [1]) of 0.9 mg/kg and an Activity (Macrophomina phaseolina [11]) of 30%.

`FC(F)C(F)(F)OCC(Cn1cncn1)c1ccc(Cl)cc1Cl` (configuration not stated) [TETRACONAZOLE] gave an ED50 (Macrophomina phaseolina [1]) of 2.96 mg/kg and an Activity (Macrophomina phaseolina [8]) of 15%.

In the case of `O=CNC(N1CCN(C(NC=O)C(Cl)(Cl)Cl)CC1)C(Cl)(Cl)Cl` (configuration not stated) [TRIFORINE], the ED50 (Macrophomina phaseolina [1]) is reported as 1 mg/kg and the Activity (Macrophomina phaseolina [7]) is reported as 25%.

Source: ChEMBL document CHEMBL3046872, “Management of Macrophomina wilt in melons using grafting or fungicide soil application: Pathological, horticultural and economical aspects” (2012)
